According to patent US10377763B2, “Morphinan derivative and medical usage thereof” (UNIVERSITY OF TSUKUBA, priority 2015, dated 2019):
Several values for one entry are separate records, joined by “and”; a condition that tells them apart may be missing. Identical values can stand only once. Like-named read-outs stand apart in the source and are kept apart here.

Columns and labels:
[1] = tested on: male ICR mice with morphine physical dependence; experiment: Evaluation of the therapeutic effect on drug dependence (naloxone-induced withdrawal syndrome in morphine-dependent mice); format: in vivo; settings: 10 mg/kg i.p. 30 minutes prior to naloxone 3 mg/kg s.c., after repeated morphine
Description: Increasing doses of morphine hydrochloride dissolved in saline were administered subcutaneously to 7-week-old male ICR mice twice daily (dosing interval: about 12 hours) for four days (dose: Day 1, 8 mg/kg followed by 15 mg/kg; Day 2, 20 mg/kg followed by 25 mg/kg; Day 3, 30 mg/kg followed by 35 mg/kg; Day 4, 40 mg/kg followed by 45 mg/kg). On Day 5, the mice were administered subcutaneously with morphine hydrochloride at 45 mg/kg as the final dose. Two hours after the final administration of morphine hydrochloride, the mice were administered subcutaneously with naloxone hydrochloride at 3 mg/kg. The mice were administered intraperitoneally with the compound of Example 45 (Compound 26) at 10 mg/kg or saline, the solvent of the compound, 30 minutes prior to the administration of naloxone hydrochloride. Symptoms of withdrawal syndrome (jumping, body shake, ptosis, forepaw tremor, rearing, body weight loss, and diarrhea) which appeared 60 minutes after the last dose of naloxone hydrochloride were observed. Body weight was measured before and every 15 minutes after naloxone hydrochloride administration. Moreover, diarrhea was graded according to a three-point scoring system based on the appearance of feces: normal feces, loose feces, and liquid feces or liquid diarrhea. The other symptoms of withdrawal syndrome were evaluated based on the presence or absence of their manifestation. Statistical analysis was performed using chi square test and two-way analysis of variance and setting the significance level at p<0.05.

[2] = tested on: male ICR mice with morphine physical dependence; experiment: Evaluation of the prophylactic effect on drug dependence (naloxone-induced withdrawal syndrome in morphine-dependent mice); format: in vivo; settings: 10 mg/kg repeatedly with morphine Day 1-5, naloxone 3 mg/kg s.c.
Description: Increasing doses of morphine hydrochloride dissolved in saline were administered subcutaneously to 7-week-old male ICR mice twice daily (dosing interval: about 12 hours) for four days (dose: Day 1, 8 mg/kg followed by 15 mg/kg; Day 2, 20 mg/kg followed by 25 mg/kg; Day 3, 30 mg/kg followed by 35 mg/kg; Day 4, 40 mg/kg followed by 45 mg/kg). On Day 1 to Day 4, the mice were administered intraperitoneally with the compound of Example 45 (Compound 26) at 10 mg/kg or saline, the solvent of the compound, 30 minutes prior to every first administration of morphine hydrochloride. On Day 5, the mice were administered subcutaneously with the compound of Example 45 (Compound 26) at 10 mg/kg or saline, and 30 minutes later administered subcutaneously with morphine hydrochloride at 45 mg/kg as the final dose. Two hours after the final administration of morphine hydrochloride, the mice were administered subcutaneously with naloxone hydrochloride at 3 mg/kg; symptoms of withdrawal syndrome (jumping, body shake, ptosis, forepaw tremor, rearing, body weight loss, and diarrhea) which appeared 60 minutes after administration of naloxone hydrochloride were observed. Body weight was measured before and every 15 minutes after naloxone hydrochloride administration. Moreover, diarrhea was graded according to a three-point scoring system based on the appearance of feces: normal feces (Normal), loose feces (Slightly), and liquid feces or liquid diarrhea (Severe). The other symptoms of withdrawal syndrome were evaluated based on the presence or absence of their manifestation. Statistical analysis was performed using chi square test and two-way analysis of variance and setting the significance level at p<0.05.

[3] = biological target: human OX2R (Homo sapiens (Human), UniProt O43614); experiment: Measurement of antagonistic activity against orexin receptors (intracellular calcium, CHOOX2R cells); format: cell-based
Description: (§1) The Chinese hamster ovary (CHO) cell lines CHOOX1R and CHOOX2R were established by modifying CHO cells to constantly express the NFAT-luciferase gene and either the human OX1R or human OX2R gene. Those cells were plated at 10,000 cells/well in 96-well multiplates with DMEM (manufactured by Sigma-Aldrich Co. LLC) supplemented with 5% FBS (manufactured by Thermo Scientific Inc.) and incubated at 37° C. and 5% CO2 for 48 hours. After removal of the medium, 100 μL of an assay buffer (20 mM HEPES (manufactured by Sigma-Aldrich Co. LLC), Hank's balanced salt solution (manufactured by Gibco), 0.1% BSA (manufactured by Sigma-Aldrich Co. LLC), 2.5 mM probenecid acid (manufactured by Wako Pure Chemical Industries, Ltd.), pH 7.4) containing 5 μM Fura-2AM (manufactured by Cayman Chemical Co.) was added to each well, and incubated at 37° C. and 5% CO2 for 60 minutes. After removal of the buffer containing Fura-2AM, 75 μL of the assay buffer was added to each well. Then, […] of the assay buffer containing a test compound at various concentrations and OX-A (manufactured by Peptide Institute, Inc.) was added to start the reaction. The change in intracellular calcium ion concentration induced by the reaction was evaluated by the ratio of fluorescent intensities, which were measured at a wavelength of 510 nm based on the two wavelength excitation approach using FDSS 7000 (manufactured by Hamamatsu Photonics K.K.) with fluorescence excitation at 340 nm and 380 nm. A concentration-response curve on the antagonistic activity was plotted from the values of maximal fluorescent intensity ratio determined when various concentrations of a test compound were added in the presence of […] of OX-A, where a value of maximal fluorescent intensity ratio determined by adding 300 pM of OX-A alone corresponds to 100% and a value of maximal fluorescent intensity ratio determined by adding the assay buffer alone corresponds to 0%. Based on the resulting non-linear regression curve, the 50% maximal inhibitory concentration (IC50) was calculated. Each test compound was dissolved in DMSO to a concentration of 10 mM (the final concentration of DMSO was 1%), and then diluted with the assay buffer to give a final concentration of 3.0×10^−10 M to 1.0×10^−5 M (a common ratio of 3), while OX-A was diluted to a final concentration of 300 pM. The experiment was performed in quadruplicate plates, and the results of the four independent measurements were averaged to give the value of each reaction, and then the IC50 of a sample was calculated. If the sample number was 2 or more, the averaged IC50 was used.

[4] = biological target: human OX1R (Homo sapiens (Human), UniProt O43613); experiment: Measurement of antagonistic activity against orexin receptors (intracellular calcium, CHOOX1R cells); format: cell-based; settings: for antagonistic activity against human OX1 receptor (in words): summary of Table 6
Description: as §1

[5] = CHOOX2R cells, 300 pM OX-A, Fura-2 calcium, read-out: OX2 (IC50)
[6] = CHOOX1R cells, 300 pM OX-A, Fura-2 calcium, read-out: OX1 (IC50)

Sequence of human OX1R (O43613 whole entry): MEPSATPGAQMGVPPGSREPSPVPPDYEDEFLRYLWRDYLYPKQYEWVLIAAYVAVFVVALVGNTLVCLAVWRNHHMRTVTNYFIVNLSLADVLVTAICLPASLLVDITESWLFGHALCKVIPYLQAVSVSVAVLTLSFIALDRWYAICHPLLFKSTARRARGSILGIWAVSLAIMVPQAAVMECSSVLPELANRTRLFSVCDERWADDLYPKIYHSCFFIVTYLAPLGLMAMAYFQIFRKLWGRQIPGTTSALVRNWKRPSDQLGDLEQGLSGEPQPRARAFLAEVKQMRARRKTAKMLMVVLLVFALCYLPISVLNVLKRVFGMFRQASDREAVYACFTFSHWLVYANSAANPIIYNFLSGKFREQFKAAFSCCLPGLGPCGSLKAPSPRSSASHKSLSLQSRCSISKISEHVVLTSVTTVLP
Sequence of human OX2R (O43614 whole entry): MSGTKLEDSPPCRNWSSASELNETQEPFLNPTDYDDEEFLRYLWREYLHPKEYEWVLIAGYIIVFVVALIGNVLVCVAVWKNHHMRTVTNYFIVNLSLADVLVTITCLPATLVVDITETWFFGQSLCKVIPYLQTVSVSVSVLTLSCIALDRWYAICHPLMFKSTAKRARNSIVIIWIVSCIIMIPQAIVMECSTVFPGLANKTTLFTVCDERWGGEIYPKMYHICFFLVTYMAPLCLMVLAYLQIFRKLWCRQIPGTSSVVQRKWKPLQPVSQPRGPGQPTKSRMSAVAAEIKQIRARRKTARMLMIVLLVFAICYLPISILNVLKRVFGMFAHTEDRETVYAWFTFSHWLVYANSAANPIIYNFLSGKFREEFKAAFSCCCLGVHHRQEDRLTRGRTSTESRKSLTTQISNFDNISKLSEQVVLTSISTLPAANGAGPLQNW

COc1ccc2c3c1O[C@H]1[C@H](N(C)C(=O)/C=C/c4ccccn4)CC[C@@]4(O)[C@@H](C2)N(S(=O)(=O)c2ccccc2N(C)C)CC[C@]314 [Example 45, (E)-N-[(4R,4aS,7R,7aR,12bS)-3-{[2-(dimethylamino)phenyl]sulfonyl}-4a-hydroxy-9-methoxy-2,3,4,4a,5,6,7,7a-octahydro-1H-4,12-methanobenzofuro[3,2-e]isoquinolin-7-yl]-N-methyl-3-(pyridin-2-yl)acrylamide]
Body shake: number of animals with withdrawal syndrome/total number of animals [1]: 7/13 | Diarrhea score Liquid feces or liquid diarrhea (number of corresponding animals/total number of animals) [1]: 3/13 | Diarrhea score Loose feces (number of corresponding animals/total number of animals) [1]: 8/13 | Diarrhea score Normal feces (number of corresponding animals/total number of animals) [1]: 2/13 | Forepaw tremor: number of animals with withdrawal syndrome/total number of animals [1]: 11/13 | Jumping: number of animals with withdrawal syndrome/total number of animals [1]: statistically significantly suppressed and 2/13** | Ptosis: number of animals with withdrawal syndrome/total number of animals [1]: tendency to suppress and 3/13 | Rearing: number of animals with withdrawal syndrome/total number of animals [1]: 11/13 | diarrhea (withdrawal syndrome, in words) [1]: statistically significantly suppressed | body weight loss (withdrawal syndrome) ([1]; FIG. 2): statistically significantly suppressed | Body shake: number of animals with withdrawal syndrome/total number of animals [2]: 6/8 | Diarrhea score Liquid feces or liquid diarrhea (number of corresponding animals/total number of animals) [2]: 2/8 | Diarrhea score Loose feces (number of corresponding animals/total number of animals) [2]: 4/8 | Diarrhea score Normal feces (number of corresponding animals/total number of animals) [2]: 2/8 | Forepaw tremor: number of animals with withdrawal syndrome/total number of animals [2]: 6/8 | Jumping: number of animals with withdrawal syndrome/total number of animals [2]: statistically significantly suppressed and 1/8* | Ptosis: number of animals with withdrawal syndrome/total number of animals [2]: tendency to suppress and 4/8 | Rearing: number of animals with withdrawal syndrome/total number of animals [2]: tendency to suppress and 5/8 | diarrhea (withdrawal syndrome, in words) [2]: statistically significantly suppressed | body weight loss (withdrawal syndrome) ([2]; FIG. 1): statistically significantly suppressed | IC50 [3]: > 10000 nM | IC50 [4]: 3.61 nM | antagonistic activity against human OX1 receptor (in words) [4]: potent and selective antagonistic activity

COc1ccc2c3c1O[C@H]1[C@H](N(C)C(=O)/C=C/c4ccoc4)CC[C@@]4(O)[C@@H](C2)N(S(=O)(=O)c2cccc(C)c2)CC[C@]314 [Example 3]
IC50 [3, 5]: > 10000 nM | IC50 [4, 6]: 24 nM | antagonistic activity against human OX1 receptor (in words) [4]: potent and selective antagonistic activity

COc1ccc2c3c1O[C@H]1[C@H](N(C)C(=O)/C=C/c4ccoc4)CC[C@@]4(O)[C@@H](C2)N(S(=O)(=O)C2CC2)CC[C@]314 [Example 28]
IC50 [3, 5]: > 10000 nM | IC50 [4, 6]: 101 nM | antagonistic activity against human OX1 receptor (in words) [4]: potent and selective antagonistic activity
